Consider six compounds from PMC10787407, “Regulation of polysaccharide in Wu‐tou decoction on intestinal microflora and pharmacokinetics of small molecular compounds in AIA rats” (Chinese Medicine, 2024).

One data set can be described thus: in vivo. The following applies: Sprague-Dawley, rat, po, 39.2 g/kg/day, then oral SM 39.2 g crude drug/kg, plasma, mean ± SEM; for Cmax: C max; for Tmax: T max.
The nature of data set [1]: PK study of SM components in plasma of AIA rats by UPLC-MS/MS (MG vs MPS group). The following applies: for T max / AUC 0-t / AUC 0-∞ / C max / t 1/2: then oral SM 39.2 g crude drug/kg, plasma, mean ± SEM.
Procedure: (§1) In the PK study, 12 SD rats were divided into model group (MG group) and model + polysaccharide group (MPS group). Rats in the MPS group were given PS (9.8 g crude drug/kg/day) by oral administration, while rats in the MG group received the same amount of saline. After continuous administration for 21 days, rats in both groups were given SM (39.2 g crude drug/kg/day), and two groups of rats were subjected to a PK study.
(§2) The supernatant was collected and dried with N2, redissolved with 100 μL methanol, and centrifuged again after 10 min centrifugation at 4 °C, 13000 rpm. Then the supernatant was collected for UPLC-MS /MS analysis.
(§3) The Shimadzu UPLC-MS/MS system was used for the PK study. […] The multiple reaction monitoring (MRM) mode was used both in positive and negative mode. The MS parameters were as follows: flow rate of heating gas 10 L/min, flow rate of drying gas 10 L/min, flow rate of atomizing gas 3 L/min, interfacial temperature 300 ℃, DL temperature 250 ℃.
(§4) Separation was performed using a Waters ACQUITY UPLC BEH C18 column (2.1 mm × 100 mm, 1.7 μm). The mobile phase was 0.1% formic acid water (v/v) (A) and acetonitrile (B).
Setting [2] is: MG group: AIA rats, saline 21 days.
Where [3] appears, read: MPS group: AIA rats, oral PS 9.8 g crude drug/kg/day 21 days.
The mark [4] stands for this setting: t 1/2, MG group: AIA rats, saline 21 days.
The mark [5] stands for this setting: t 1/2, MPS group: AIA rats, oral PS 9.8 g crude drug/kg/day 21 days.

Procedure for in vivo: as §1, §2, §3, §4

Regarding `C[C@@]12C[C@@]3(O)O[C@@H](O1)[C@]1(COC(=O)c4ccccc4)[C@H]3C[C@@]12O[C@@H]1O[C@H](COC(=O)c2ccccc2)[C@@H](O)[C@H](O)[C@H]1O` [Benzoylpaeoniflorin], in “in vivo” (setting [2]), the AUC 0-t was 27.9 ± 5.4 ng·h/mL, the AUC(0-inf) was 30.6 ± 6.08 ng·h/mL, the peak level (Cmax) was 14.8 ± 2.66 ng/mL and the Tmax was 0.139 ± 0.079 h. In addition, in “in vivo” (setting [3]), the AUC 0-t was found to be 31.6 ± 6.74 ng·h/mL, the AUC(0-inf) amounted to 37.9 ± 9.82 ng·h/mL, the Cmax stood at 24.3 ± 4 ng/mL and the time to peak (Tmax) came to 0.083 ± 0.001 h. Also, the half-life in the data set “in vivo” (setting [4]) is 3.59 ± 0.489 h. In addition, the half-life in “in vivo” (setting [5]) was 6.96 ± 2.27 h. Further, the “Change of C max after oral PS” value in data set [1] (MPS group compared with the MG group, AIA rats) is listed as “significantly increased”. For the same compound, in data set [1] (MPS vs MG group, AIA rats), the “Absorption under the intervention of PS” value is reported as “increased”.

In the case of `COc1ccc(-c2coc3cc(O)ccc3c2=O)cc1O` [Calycosin], in the data set “in vivo” (setting [2]), the AUC 0-t was 12.3 ± 1.06 ng·h/mL, the AUC(0-inf) worked out at 14.3 ± 1.19 ng·h/mL, the maximum concentration (Cmax) stood at 8.48 ± 2.43 ng/mL and the time of peak concentration (Tmax) came to 0.083 ± 0.001 h. Also, in “in vivo” (setting [3]), the AUC 0-t is 12.4 ± 0.972 ng·h/mL, the AUC(0-inf) is 13.6 ± 0.642 ng·h/mL, the concentration peaked (Cmax) at 6.61 ± 1.44 ng/mL and the time to peak (Tmax) stood at 0.083 ± 0.001 h. Moreover, in “in vivo” (setting [4]), the half-life was 4.94 ± 0.315 h. The half-life in “in vivo” (setting [5]) was 3.53 ± 0.666 h.

As for `CN[C@@H](C)[C@H](O)c1ccccc1` [Ephedrine], in “in vivo” (setting [2]), the AUC 0-t worked out at 1720 ± 96.8 ng·h/mL, the area under the curve AUC(0-inf) was 1750 ± 93.6 ng·h/mL and the Cmax was 674 ± 137 ng/mL. In addition, in “in vivo” (setting [3]), the area under the curve AUC(0-inf) stood at 1580 ± 228 ng·h/mL, the Cmax was found to be 662 ± 149 ng/mL and the Tmax amounted to 0.333 ± 0.118 h. Also, the half-life in “in vivo” (setting [4]) was 1.85 ± 0.273 h. The half-life in the data set “in vivo” (setting [5]) was 1.74 ± 0.108 h. In addition, the T max in data set [1] (setting [2]) turned out to be 0.250 ± 0.001 h. In addition, the “AUC 0-t” value in data set [1] (setting [3]) worked out at 1559.029 ± 227.025 ng·h/mL.

For the compound `O=C(/C=C/c1ccc(O[C@@H]2O[C@H](CO)[C@@H](O)[C@H](O)[C@H]2O)cc1)c1ccc(O)cc1O` [Isoliquiritin], in “in vivo” (setting [2]), the AUC 0-t was 23.3 ± 0.956 ng·h/mL, the AUC(0-inf) is 30.8 ± 2.93 ng·h/mL, the Cmax was determined as 13.6 ± 1.06 ng/mL and the Tmax is 0.194 ± 0.079 h. For the same compound, in “in vivo” (setting [3]), the AUC 0-t was 21.9 ± 1.76 ng·h/mL, the AUC(0-inf) was found to be 33.1 ± 3.19 ng·h/mL, the concentration peaked (Cmax) at 14.2 ± 1.55 ng/mL and the Tmax was 0.111 ± 0.062 h. In “in vivo” (setting [4]), this compound had a half-life of 5.85 ± 2.02 h. Also, in the data set “in vivo” (setting [5]), the half-life was 7.61 ± 1.85 h.

For `CCN1C[C@]2(COC)CC[C@H](O)[C@]34C1[C@H]([C@H](OC)[C@H]23)[C@@]1(O)C[C@H](OC)[C@H]2C[C@@H]4[C@@H]1[C@H]2O` [Neoline], in data set [1] (setting [2]), the “AUC 0-t” value is 7.417 ± 0.718 ng·h/mL, the “AUC 0-∞” value turned out to be 8.058 ± 0.838 ng·h/mL, the C max stood at 3.221 ± 1.040 ng/mL and the T max came out at 0.333 ± 0.118 h. Also, the “t 1/2” value in data set [1] (setting [2]) is on record as 3.245 ± 0.999 h. For the same compound, in data set [1] (setting [3]), the “AUC 0-t” value was 7.559 ± 0.880 ng·h/mL, the “AUC 0-∞” value was 7.980 ± 0.757 ng·h/mL, the C max amounted to 3.695 ± 1.005 ng/mL and the T max is 0.250 ± 0.001 h. The “t 1/2” value in data set [1] (setting [3]) amounted to 2.486 ± 0.349 h.

As to `CCN1C[C@]2(COC)CC[C@H](OC)[C@]34C1[C@H](C[C@H]23)[C@@]1(O)C[C@H](OC)[C@H]2C[C@@H]4[C@@H]1[C@H]2O` [Talatizamine], in data set [1] (setting [2]), the “AUC 0-t” value was determined as 21.996 ± 1.581 ng·h/mL, the “AUC 0-∞” value was found to be 30.766 ± 4.871 ng·h/mL, the C max amounted to 3.376 ± 0.595 ng/mL and the T max stood at 0.417 ± 0.276 h. For the same compound, the “t 1/2” value in data set [1] (setting [2]) is 6.242 ± 1.838 h. Further, in data set [1] (setting [3]), the “AUC 0-t” value was found to be 22.338 ± 1.786 ng·h/mL, the “AUC 0-∞” value was 28.106 ± 2.545 ng·h/mL, the C max is recorded as 3.576 ± 0.320 ng/mL and the T max was determined as 0.292 ± 0.093 h. Besides, in data set [1] (setting [3]), the “t 1/2” value is 5.163 ± 1.483 h.
